Laboratory results reported in ChEMBL document CHEMBL5727296, “Amino-triazolopyridine compounds and their use in treating cancer” (2019).
pIC50: −log10 of the molar value.

Target: T1, Dual specificity protein kinase TTK (Homo sapiens, UniProt P33981)
T1 sequence (P33981 whole entry): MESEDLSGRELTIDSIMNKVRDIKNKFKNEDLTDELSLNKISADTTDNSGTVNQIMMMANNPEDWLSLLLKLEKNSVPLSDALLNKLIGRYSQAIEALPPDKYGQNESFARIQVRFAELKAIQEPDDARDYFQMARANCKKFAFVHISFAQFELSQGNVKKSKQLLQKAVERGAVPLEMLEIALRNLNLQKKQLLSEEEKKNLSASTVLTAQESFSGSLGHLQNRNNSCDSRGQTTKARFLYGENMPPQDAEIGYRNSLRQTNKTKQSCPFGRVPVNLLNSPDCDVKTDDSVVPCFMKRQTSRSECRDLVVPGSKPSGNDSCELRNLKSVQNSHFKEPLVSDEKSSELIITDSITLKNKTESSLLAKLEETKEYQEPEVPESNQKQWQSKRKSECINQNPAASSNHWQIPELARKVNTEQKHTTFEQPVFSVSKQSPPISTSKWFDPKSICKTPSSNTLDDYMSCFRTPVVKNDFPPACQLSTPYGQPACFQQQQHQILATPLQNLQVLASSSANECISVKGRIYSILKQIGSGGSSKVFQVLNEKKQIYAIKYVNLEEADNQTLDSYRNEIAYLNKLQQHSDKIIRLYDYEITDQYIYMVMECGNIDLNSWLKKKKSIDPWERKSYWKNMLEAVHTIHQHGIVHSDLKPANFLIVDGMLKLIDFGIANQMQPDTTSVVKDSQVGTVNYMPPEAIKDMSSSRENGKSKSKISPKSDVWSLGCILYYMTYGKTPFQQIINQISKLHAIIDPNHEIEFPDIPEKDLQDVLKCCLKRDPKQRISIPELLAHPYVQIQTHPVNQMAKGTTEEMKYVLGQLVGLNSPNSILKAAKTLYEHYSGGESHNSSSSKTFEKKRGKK
Test: Enzyme Assay: The inhibitory activity of compounds against AURKA, AURKB, JAK1, JAK2 and JAK3 was determined in Z′-LYTE® assays run by ThermoFisher Scientific as part of their SelectScreen Biochemical Kinase Profiling Service. The Z′-LYTE biochemical assay format employs a fluorescence-based, coupled-enzyme format and is based on the differential sensitivity of phosphorylated and …

pIC50: 6.30
SMILES: Cc1cc2ncnn2cc1Nc1ncc2c(n1)n([C@H]1CC[C@@](C)(O)CC1)c(=O)n2C
